PubChem BioAssay (NCI)
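Grown in 96-well plates, cells were treated for 48 hours with each compound at five concentrations. Insufficient inhibition: endpoint recorded as highest concentration tested. At the TGI there is no net growth.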

Tests used:
Test in all cases: NCI anticancer screen, dose series, 48 h
MOLT-4 leukemia = system: MOLT-4 leukemia
HCT-116 colon = system: HCT-116 colon
HL-60(TB) leukemia = system: HL-60(TB) leukemia
UACC-257 melanoma = system: UACC-257 melanoma
SK-OV-3 ovarian = system: SK-OV-3 ovarian
SN12C renal = system: SN12C renal
NCI-H23 lung = system: NCI-H23 lung
CAKI-1 renal = system: CAKI-1 renal
TK-10 renal = system: TK-10 renal
HOP-62 NSCLC = system: HOP-62 NSCLC
786-0 renal = system: 786-0 renal

Row | Structure (SMILES) | TGI (MOLT-4 leukemia) [µM] | TGI (HCT-116 colon) [µM] | TGI (HL-60(TB) leukemia) [µM] | TGI (UACC-257 melanoma) [µM] | TGI (SK-OV-3 ovarian) [µM] | TGI (SN12C renal) [µM] | TGI (NCI-H23 lung) [µM] | TGI (CAKI-1 renal) [µM] | TGI (TK-10 renal) [µM] | TGI (HOP-62 NSCLC) [µM] | TGI (786-0 renal) [µM]
1 | CCCC(=O)n1[nH]c(=O)n(-c2ccc(Cl)cc2)c1=O | > 100 | > 100 | > 100 | > 100 | > 100 | > 100 | > 100 | > 100 | > 100 | > 100 | > 100
2 | CC(=O)N(C)c1ccc(Nc2cc(C)[nH]c3ccc4ncnc4c23)cc1 | 13.7 | 16.5 | 18.9 | 26.7 | 35.8 | 34.9 | 28 | 23.8 | 48.3 | 23.5 | 18.8
3 | C=C1C(=O)C[C@H]2C(=C)C(=O)O[C@@H]2C2C1CC[C@@]2(C)O (stereo not given in full) | > 100 | > 100 | > 100 | 56.1 | > 100 | > 100 | 59.4 | 40.3 | 41.4 | > 100 | 77.7
4 | c1nc(OCC2CCCCC2)c2[nH]cnc2n1 | > 100 | > 100 | > 100 | > 100 | > 100 | > 100 | > 100 | > 100 | > 100 | > 100 | > 100
5 | CCOC(=O)c1c(NC(=O)c2cccs2)sc2c1CCCC2 | > 100 | > 100 | > 100 | > 100 | 79.5 | > 100 | > 100 | > 100 | > 86.1 | 55.3 | > 100
6 | Nc1c2c(nc3cc(F)c(F)cc13)CCC2 | > 100 | > 100 | 10.1 | > 100 | > 100 | > 100 | > 100 | > 100 | 77.7 | > 100 | > 100
7 | COc1ccc(N2C(=O)C(=O)N(c3ccccc3[N+](=O)[O-])C2=S)cc1 | > 100 | > 100 | > 100 | 47.3 | 86.1 | > 100 | 53.5 | > 100 | 65.7 | > 100 | > 100
8 | Nc1ccc(Oc2ccc(C34CC5CC6C3CC3CC4C(C5)C6(c4ccc(Oc5ccc(N)cc5)cc4)C3)cc2)cc1 | 28.3 | 41.1 | 22 | > 32.5 | 53.9 | > 100 | > 82.9 | 48 | > 68.6 | 53.6 | 45.2
9 | COC(=O)CCC1=CCC2(SC)C(=O)Nc3cccc1c32 (stereo not given) | > 100 | > 100 | > 100 | > 100 | > 100 | > 100 | > 100 | > 100 | > 100 | > 100 | > 100
10 | O=c1cnn(C2OC(C(O)CO)C(O)C2O)c(=O)[nH]1 (stereo not given) | > 100 | > 100 | > 100 | > 100 | > 100 | > 100 | > 100 | > 100 | > 100 | > 100 | > 100
11 | CCCn1c2ccccc2c2ccc3c(c21)C(=O)C=CC3=O | 2.26 | 3.13 | > 2.27 | 5.48 | > 10 | > 7.53 | 5.99 | 6.1 | 3.76 | > 10 | 3.27
12 | C[N+](CCCl)(CCCl)Cc1cccc2cccc([N+](=O)[O-])c12 | > 100 | > 100 | > 100 | > 100 | > 100 | > 100 | > 100 | > 100 | > 100 | > 100 | > 100
13 | O=C1NC(NNc2ccccc2)=N/C1=C\c1ccccc1O | > 100 | > 100 | > 100 | > 100 | > 100 | > 100 | > 100 | > 100 | > 100 | > 100 | > 100
14 | C=C(CCC/C(C)=C/C=C/[C@]1(C)CCCc2ccoc21)CC(=O)O | > 100 | > 100 | > 100 | > 100 | > 100 | > 100 | > 100 | > 100 | > 100 | > 100 | > 100
15 | CC(=O)Nc1ccc(N2C(=O)/C(=C\c3cccc(Oc4ccccc4)c3)S(=O)(=O)C2c2ccccc2)cc1 (stereo not given) | 98.4 | > 100 | 56.6 | > 100 | > 100 | > 100 | > 100 | > 100 | > 100 | > 100 | > 100
16 | C1C2CC3CC1CC(Nc1nc(NC45CC6CC(CC(C6)C4)C5)nc(NC45CC6CC(CC(C6)C4)C5)n1)(C2)C3 | > 100 | > 100 | > 100 | > 100 | > 100 | > 100 | > 100 | > 100 | > 100 | > 100 | > 44.1
17 | COc1ccc(N2C(=O)CC(C3CC(C(C)(C)C)CCC3=O)C2=O)cc1 (stereo not given) | > 100 | > 100 | > 100 | > 100 | > 100 | > 100 | > 100 | > 100 | > 100 | > 100 | > 100
18 | O=C(O)CC1NC(/C(=C/c2ccccc2)NC(=O)c2ccccc2)OC1=O (stereo not given) | 45.1 | 42.9 | 38 | > 100 | > 100 | > 100 | > 100 | > 100 | > 100 | 37.2 | > 100
19 | Cc1cc2c(cc1Cl)SC(NS(=O)(=O)c1ccc(Cl)cc1)=NS2(=O)=O | 73 | > 100 | > 100 | > 100 | > 100 | > 100 | > 100 | > 100 | 69.5 | > 100 | > 100
20 | COCC1OC(Sc2ccccc2)C(O)C(OC)C1OC (stereo not given) | > 100 | > 100 | > 100 | > 100 | > 100 | > 100 | > 100 | > 100 | > 100 | > 100 | > 100
21 | O=C(O)CC(CC(=O)O)C(=O)O | > 100 | > 100 | > 100 | > 100 | > 100 | > 100 | > 100 | > 100 | > 100 | > 100 | > 100
22 | CCCCS(=O)CCC(N)P(=O)(O)O (stereo not given) | > 100 | > 100 | > 100 | > 100 | > 100 | > 100 | > 100 | > 100 | > 100 | > 100 | > 100
23 | CC(C)(C)OC(=O)N1CCc2[nH][nH]c(=O)c2C1 | > 100 | > 100 | > 100 | > 100 | > 100 | > 100 | > 100 | > 100 | > 100 | > 100 | > 100
24 | CC1(c2cccs2)CC(c2cccs2)=C(C#N)C(=C(C#N)C#N)N1 (stereo not given) | > 100 | 31.6 | 33.1 | 32.7 | 37.1 | 35.6 | 38.8 | 37 | 36.5 | 39.7 | 35
25 | Nc1ncnc2c1ccn2C/C=C\CO | > 100 | > 100 | > 100 | > 100 | > 100 | > 100 | > 100 | > 100 | > 100 | > 100 | > 100
26 | CN1CCN(C(=O)CCNC(=O)Cc2ccc(C(=O)c3ccccc3)cc2)CC1 | > 100 | > 100 | > 100 | > 100 | > 100 | > 100 | > 100 | > 100 | > 100 | > 100 | > 100
27 | CC(=O)c1ccc(NCc2cc(O)ccc2O)cc1 | > 100 | 37.4 | 76.9 | 33.9 | 59.8 | 92.8 | 48.9 | 34.6 | 29 | 42 | 27.7
28 | COc1cc(OC)c(-c2ccc(OCc3ccccc3)c3c(OC)cc(C)cc23)c2c1C(C)=N[C@H](C)C2 | 4.28 | 3.97 | 4.4 | 3.91 | 4.03 | 3.74 | 4.23 | > 12.5 | 3.43 | 4.16 | 3.8
29 | Oc1cn(-c2ccc(Cl)cc2)nc1-c1nnc(-c2ccccc2)o1 | 19.9 | 1.14 | 17.7 | 21.6 | > 74 | > 57 | 1.01 | 11.1 | 3.76 | 4.64 | 12.2
30 | FC(F)(F)c1ccc(N=C/C=C(/Nc2ccc(C(F)(F)F)cc2)c2ccc(Cl)cc2)cc1 | > 100 | 24.5 | 65.5 | 38.3 | 39.1 | 26.3 | 31.3 | 19.6 | 69.1 | 40.1 | 37.9
